pIC50: −log10 of the molar value. Read-outs that look alike come from different tables or passages of the source.
How the values were obtained:
[1] = system: Ramos B-cell line stimulated with IL-4; assay: Assay for Ramos B-Cell Line Stimulated with IL-4 (CD23 upregulation, FACS); type: cell-based, human; settings: IL-4 50 units/mL, 20-24 hours, anti-CD23-PE staining, FACS, read-out: Example 2 (IC50, Ramos B-cell line stimulated with IL-4)
Source text: One means of assaying for such inhibition is detection of the effect of the 2,4-pyrimidinediamine compounds on the upregulation of downstream gene products. In the Ramos/IL4 assay, B-cells are stimulated with the cytokine Interleukin-4 (IL-4) leading to the activation of the JAK/Stat pathway through phosphorylation of the JAK family kinases, JAK1 and JAK3, which in turn phosphorylate and activate the transcription factor Stat-6. […] To study the effect of inhibitors (e.g., the 2,4-substituted pyrimindinediamine compounds described herein) on the JAK1 and JAK3 kinases, human Ramos B cells are stimulated with human IL-4. Twenty to 24 hours post stimulation, cells are stained for upregulation of CD23 and analyzed using flow cytometry (FACS). […] An exemplary assay of this type is described in greater detail in Example 2.
B-cells stimulated with cytokine Interleukin-4 (IL-4) activate the JAK/Stat pathway through phosphorylation of the JAK family kinases, JAK-1 and JAK-3, which in turn phosphorylate and activate the transcription factor Stat-6. […] To study the effect of inhibitors on the JAK family kinases, human Ramos B cells are stimulated with human IL-4.
The Ramos B-cell line was acquired from ATCC (ATCC Catalog No. CRL-1596). The cells were cultured in RPMI 1640 (Cellgro, MediaTech, Inc., Herndon, Va., Cat No. 10-040-CM) with 10% fetal bovine serum (FBS), heat inactivated (JRH Biosciences, Inc, Lenexa, Kans., Cat No. 12106-500M) according to ATCC propagation protocol. Cells were maintained at a density of 3.5×10^5. The day before the experiment, Ramos B-cells were diluted to 3.5×10^5 cells/mL to ensure that they were in a logarithmic growth phase.
Cells were spun down and suspended in RPMI with 5% serum. 5×10^4 cells were used per point in a 96-well tissue culture plate. Cells were pre-incubated with compound or DMSO (Sigma-Aldrich, St. Louis, Mo., Cat No. D2650) vehicle control for 1 hour in a 37° C. incubator.
Cells were then stimulated with IL-4 (Peprotech Inc., Rocky Hill, N.J., Cat No. 200-04) for a final concentration of 50 units/mL for 20-24 hours. Cells were then spun down and stained with anti-CD23-PE (BD Pharmingen, San Diego, Calif., Cat No. 555711) and analyzed by FACS. Detection was performed using a BD LSR I System Flow Cytometer, purchased from Becton Dickinson Biosciences of San Jose, Calif.

Primary human T-cells = assay: Primary Human T-Cell Proliferation Assay Stimulated with IL-2 (CellTiter-Glo); type: cell-based; settings: IL-2, 72 hours, ATP quantitation (CellTiter-Glo), read-out: Example 3 (IC50, primary human T-cell proliferation stimulated with IL-2)
Source text: The activity of the active compounds of the invention may further be characterized by assaying the effect of the 2,4-pyrimidinediamine compounds described herein on the proliferative response of primary human T-cells. In this assay, primary human T-cells derived from peripheral blood and pre-activated through stimulation of the T-cell receptor and CD28, proliferate in culture in response to the cytokine Interleukin-2 (IL-2). This proliferative response is dependent on the activation of JAK1 and JAK3 tyrosine kinases, which phosphorylate and activate the transcription factor Stat-5. The primary human T-cells are incubated with the 2,4-pyrimidinediamine compounds in the presence of IL-2 for 72 hours and at the assay endpoint intracellular ATP concentrations are measured to assess cell viability. A reduction in cell proliferation compared to control conditions is indicative of inhibition of the JAK kinase pathway. An exemplary assay of this type is described in greater detail in Example 3.
Primary human T-cells derived from peripheral blood and pre-activated through stimulation of the T-cell receptor and CD28, proliferate in vitro in response to the cytokine Interleukin-2 (IL-2). This proliferative response is dependent on the activation of JAK-1 and JAK-3 tyrosine kinases, which phosphorylate and activate the transcription factor Stat-5.
Human primary T cells were prepared as follows. Whole blood was obtained from a healthy volunteer, mixed 1:1 with PBS, layered on to Ficoll Hypaque (Amersham Pharmacia Biotech, Piscataway, N.J., Catalog #17-1440-03) in 2:1 blood/PBS:ficoll ratio and centrifuged for 30 min at 4° C. at 1750 rpm. The lymphocytes at the serum: ficoll interface were recovered and washed twice with 5 volumes of PBS. The cells were resuspended in Yssel's medium (Gemini Bio-products, Woodland, Calif., Catalog #400-103) containing 40 U/mL recombinant IL2 (R and D Systems, Minneapolis, Minn., Catalog #202-IL (20 μg)) and seeded into a flask pre-coated with 1 μg/mL anti-CD3 (BD Pharmingen, San Diego, Calif., Catalog #555336) and […] (Immunotech, Beckman Coulter of Brea Calif., Catalog #IM1376). The primary T-cells were stimulated for 3-4 days, then transferred to a fresh flask and maintained in RPMI with 10% FBS and 40 U/mL IL-2.
Primary T-cells were washed twice with PBS to remove the IL-2 and resuspended in Yssel's medium at 2×10^6 cells/mL. 50 μL of cell suspension containing 80 U/mL IL-2 was added to each well of a flat bottom 96 well black plate. For the unstimulated control, IL-2 was omitted from the last column on the plate. Compounds were serially diluted in dimethyl sulfoxide (DMSO, 99.7% pure, cell culture tested, Sigma-Aldrich, St. Louis, Mo., Catalog No. D2650) from 5 mM in 3-fold dilutions, and then diluted 1:250 in Yssel's medium. 50 μL of 2× compound was added per well in duplicate and the cells were allowed to proliferate for 72 hours at 37° C.
Proliferation was measured using CellTiter-Glo® Luminescent Cell Viability Assay (Promega), which determines the number of viable cells in culture based on quantitation of the ATP present, as an indicator of metabolically active cells. The substrate was thawed and allowed to come to room temperature. After mixing the Cell Titer-Glo reagent and diluent together, 100 μL was added to each well. The plates were mixed on an orbital shaker for two minutes to induce lysis and incubated at room temperature for an additional ten minutes to allow the signal to equilibrate. Detection was performed using a Wallac Victor2 1420 multilabel counter purchased from Perkin Elmer, Shelton, Conn.

| Compound | pIC50 ([1]; Homo sapiens, Ramos) | pIC50 (Primary human T-cells; Homo sapiens, T-cell, 72 h) | pIC50 (Primary human T-cells) | pIC50 [1] |
| --- | --- | --- | --- | --- |
| C#CCOc1ccc(Nc2nc(Nc3cccc(CS(N)(=O)=O)c3)ncc2F)cc1 [Compound I-3, N2-(3-Aminosulfonylmethylphenyl)-5-fluoro-N4-[4-(prop-2-ynyloxy)phenyl]-2,4-pyrimidinediamine] | 7.03 | 6.11 | – | – |
| CCCN(Cc1ccc(Nc2nc(Nc3ccc(CS(=O)(=O)NC)cc3)ncc2F)cc1)S(=O)(=O)CC [Compound I-9, N4-[4-(N-ethylsulfonyl-N-propyl)aminomethyl]phenyl-5-fluoro-N2-(4-methylaminosulfonylmethyl)phenyl-2,4-pyrimidinediamine] | – | – | 5.86 | 6.65 |
| CCS(=O)(=O)NCc1cccc(Nc2nc(Nc3ccc(CS(=O)(=O)NC)cc3)ncc2F)c1 [Compound I-12, N4-(3-ethylsulfonylaminomethyl)phenyl-5-fluoro-N2-(4-methylaminosulfonylmethyl)phenyl-2,4-pyrimidinediamine] | – | – | 5.86 | 6.50 |
| C#CCOC(=O)NCc1ccc(Nc2nc(Nc3cccc(CS(N)(=O)=O)c3)ncc2F)cc1 [Compound I-14, N2-(3-Aminosulfonylmethylphenyl)-5-fluoro-N4-{4-[(prop-2-ynyloxy)carbonylaminomethyl]phenyl}-2,4-pyrimidinediamine] | 6.45 | – | – | – |
| CCS(=O)(=O)NCCc1ccc(Nc2nc(Nc3ccc(CS(=O)(=O)NC)cc3)ncc2F)cc1 [Compound I-15, N4-[4-(2-ethylsulfonylamino)ethyl]phenyl-5-fluoro-N2-(4-methylaminosulfonylmethyl)phenyl-2,4-pyrimidinediamine] | – | – | – | 6.42 |
| Cn1nccc1NC(=O)Cc1cccc(Nc2nc(Nc3cccc(CS(N)(=O)=O)c3)ncc2F)c1 [Compound I-20, N2-[3-(Aminosulfonylmethylene)phenyl]-5-fluoro-N4-[(1-methylpyrazolyl-5-aminocarbonylmethylene)phenyl]-5-fluoro-2,4-pyrimidinediamine] | – | – | – | 5.94 |
| CN1CCC(NS(=O)(=O)C=C2C=CC=C(Nc3nc(NC4=CC=CC(=CS(N)(=O)=O)C4)ncc3F)C2)CC1 [Compound I-21, N2-[3-(Aminosulfonylmethylene)phenyl]-5-fluoro-N4-[3-(1-methylpiperidin-4-ylaminosulfonylmethylene)phenyl]-2,4-pyrimidinediamine] | 5.59 | – | – | – |
| NS(=O)(=O)c1ccc(Nc2ncc(F)c(Nc3cc4c(cc3F)CS(=O)(=O)N4)n2)cc1 [Compound V-1, N2-(4-aminosulfonyl)phenyl-5-fluoro-N4-(2,2-dioxo-5-fluoro-1,3-dihydrobenzo[c]isothiazol-6-yl)-2,4-pyrimidinediamine] | 4.91 | – | – | – |
| NS(=O)(=O)c1cccc(Nc2ncc(F)c(Nc3cc4c(cc3F)CS(=O)(=O)N4)n2)c1 [Compound V-2, N2-(3-aminosulfonyl)phenyl-5-fluoro-N4-(2,2-dioxo-5-fluoro-1,3-dihydrobenzo[c]isothiazol-6-yl)-2,4-pyrimidinediamine] | 4.83 | 4.62 | – | – |
| Cc1ccc(Nc2ncc(F)c(Nc3cc4c(cc3F)CS(=O)(=O)N4)n2)cc1S(N)(=O)=O [Compound V-3, N2-(3-aminosulfonyl-4-methyl)phenyl-5-fluoro-N4-(2,2-dioxo-5-fluoro-1,3-dihydrobenzo[c]isothiazol-6-yl)-2,4-pyrimidinediamine] | 4.89 | – | – | – |
| CC1(C)Oc2ccc(Nc3nc(Nc4ccc5c(c4)NS(=O)(=O)CO5)ncc3F)nc2NC1=O [Compound V-4, N4-[2,2-dimethyl-3-oxo-4H-pyrid[1,4]oxazin-7-yl]-N2-[3,3-dioxo-1H-benzo[e][1,3,4]oxathiazin-7-yl]-5-fluoro-2,4-pyrimidinediamine] | 6.10 | 5.76 | – | – |
| Cc1cnc(Nc2cccc(CNS(=O)(=O)C3CC3)c2)nc1Nc1ccc2c(n1)CCC(=O)O2 [Compound V-5] | 6.41 | – | – | – |
| Cc1cnc(Nc2ccc(CNS(=O)(=O)c3cccnc3)cc2)nc1Nc1ccc(CNS(=O)(=O)c2cccnc2)cc1 [II-3, N2,N4-bis[4-(pyrid-3-yl)sulfonylaminomethyl]phenyl-5-methyl-2,4-pyrimidinediamine] | – | – | – | 6.49 |
| O=S(=O)(NCc1ccc(Nc2ncc(C(F)(F)F)c(Nc3ccc(CNS(=O)(=O)C4CC4)cc3)n2)cc1)C1CC1 [II-4, N2,N4-bis(4-cyclopropylsulfonylaminomethyl)phenyl-5-trifluoromethyl-2,4-pyrimidinediamine] | – | – | 6.37 | 6.87 |
| CC1(C)Oc2ccc(Nc3nc(Nc4ccc5c(c4)CN(S(N)(=O)=O)CC5)ncc3F)nc2NC1=O [III-3, N2-(2-Aminosulfonyl-1,2,3,4-tetrahydroisoquinolin-7-yl)-N4-(2,2-dimethyl-3-oxo-4H-5-pyrid[1,4]oxazin-6-yl)-5-fluoro-2,4-pyrimidinediamine] | – | – | 6.57 | 7.14 |
| N2-(3-Aminosulfonylmethylenephenyl)-5-fluoro-N4-[2-(2-N-morpholinoethylaminoacrbonyl)benzofuran-5-yl]-2,4-pyrimidinediamine [IV-5] | – | – | – | 5.52 |

Now from value to compound, other results behind:

| pIC50 ([1]; Homo sapiens, Ramos) | Compound | pIC50 (Primary human T-cells; Homo sapiens, T-cell, 72 h) | pIC50 (Primary human T-cells) | pIC50 [1] |
| --- | --- | --- | --- | --- |
| 6.51 | Cc1cnc(Nc2cccc(S(N)(=O)=O)c2)nc1Nc1ccc2c(c1)C(NS(C)(=O)=O)CC2 (racemic) [VI-1, (+/−)-N2-(3-Aminosulfonylphenyl)-5-methyl-N4-[1-(methylsulfonyl)aminoindan-6-yl]-2,4-pyrimidinediamine] | – | – | – |
| 6.67 | C#CCn1ccc2cc(Nc3nc(Nc4cccc(CS(N)(=O)=O)c4)ncc3F)ccc21 [IV-3, N2-(3-Aminosulfonylmethylphenyl)-5-fluoro-N4-[1-(propyn-3-yl)indol-5-yl]-2,4-pyrimidinediamine] | 5.70 | – | – |

Source: US8729087B2, “Compositions and methods for inhibition of the JAK pathway” (Rigel Pharmaceuticals, Inc., priority 2006, dated 2014)
